Measurements taken from PubChem BioAssay (NCI).
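Cells were grown in 96-well plates and exposed to each compound for 48 hours at five concentrations; endpoints were interpolated linearly between bracketing concentrations, or set to the highest concentration if not reached. GI50: concentration for 50% inhibition of growth. At the TGI there is no net growth.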

Experiments:
Assay in all cases: NCI-60 cell line screen, 48 h
[1] = test system: BT-549 breast
[2] = test system: A549 NSCLC
[3] = test system: U251 CNS
[4] = test system: T-47D breast
[5] = test system: OVCAR-5 ovarian
[6] = test system: NCI-H522 lung
[7] = test system: HL-60(TB) leukemia
[8] = test system: SF-268 CNS
[9] = test system: 786-0 renal
[10] = test system: M14 melanoma
[11] = test system: MALME-3M melanoma
[12] = test system: NCI/ADR-RES ovarian
[13] = test system: A498 renal
[14] = test system: K-562 leukemia
[15] = test system: HS 578T breast
[16] = test system: HOP-92 NSCLC
[17] = test system: NCI-H226 lung
[18] = test system: RPMI-8226 leukemia
[19] = test system: CAKI-1 renal
[20] = test system: SK-MEL-2 melanoma
[21] = test system: NCI-H460 lung
[22] = test system: HCT-15 colon
[23] = test system: RXF 393 renal
[24] = test system: HT29 colon
[25] = test system: SW-620 colon
[26] = test system: SN12C renal
[27] = test system: SK-OV-3 ovarian
[28] = test system: COLO 205 colon
[29] = test system: UO-31 renal
[30] = test system: SNB-75 CNS
[31] = test system: HCC-2998 colon
[32] = test system: ACHN renal
[33] = test system: OVCAR-4 ovarian
[34] = test system: NCI-H23 lung
[35] = test system: LOX IMVI melanoma
[36] = test system: MDA-MB-231 breast
[37] = test system: MDA-MB-435
[38] = test system: SF-295 CNS
[39] = test system: MCF7 breast
[40] = test system: KM12 colon
[41] = test system: MOLT-4 leukemia
[42] = test system: OVCAR-3 ovarian
[43] = test system: UACC-257 melanoma
[44] = test system: UACC-62 melanoma
[45] = test system: SNB-19 CNS
[46] = test system: DU-145 prostate
[47] = test system: SF-539 CNS
[48] = test system: TK-10 renal
[49] = test system: OVCAR-8 ovarian
[50] = test system: PC-3 prostate
[51] = test system: EKVX NSCLC
[52] = test system: CCRF-CEM leukemia
[53] = test system: IGROV1 ovarian
[54] = test system: HOP-62 NSCLC
[55] = test system: SK-MEL-28 melanoma
[56] = test system: SK-MEL-5 melanoma
[57] = test system: HCT-116 colon

COc1cccc2c1[C@H](OC)[C@]13O[C@@]1(C2=O)[C@H](O)[C@H](C)[C@@](O)(C(=O)[C@@H]1O[C@H]1C)[C@@H]3O was tested, and the TGI [1] was 838 nM, the GI50 [2] was 297 nM and the TGI [2] was 10700 nM. It also gave a TGI [3] greater than 33000 nM, a TGI [4] of 1860 nM and a TGI [5] of 859 nM. It also gave a GI50 [6] of 264 nM, a TGI [6] of 803 nM and a GI50 [7] of 238 nM. It also gave a TGI [7] of 696 nM, a GI50 [8] of 295 nM and a TGI [8] of 1030 nM. The GI50 [9] was 298 nM, the TGI [9] was 2060 nM and the TGI [10] was 534 nM. The GI50 [11] was 200 nM, the TGI [11] was 436 nM and the TGI [12] was 1180 nM. The GI50 [13] was 215 nM, the TGI [13] was 542 nM and the GI50 [14] was 326 nM. It also gave a TGI [14] greater than 100000 nM, a GI50 [15] of 283 nM and a TGI [15] of 962 nM. For the same compound, the GI50 [16] was 223 nM, the TGI [16] was 717 nM and the GI50 [17] was 275 nM. It also gave a TGI [17] of 802 nM, a GI50 [18] of 303 nM and a TGI [18] of 866 nM. For the same compound, the TGI [19] was 909 nM, the GI50 [20] was 230 nM and the TGI [20] was 542 nM. It also gave a GI50 [21] of 326 nM, a TGI [21] of 1270 nM and a GI50 [22] of 313 nM. It also gave a TGI [22] of 1090 nM, a GI50 [23] of 203 nM and a TGI [23] of 461 nM. The GI50 [24] was 321 nM, the TGI [24] was 1580 nM and the GI50 [25] was 306 nM. The TGI [25] was greater than 36000 nM, the GI50 [26] was 197 nM and the TGI [26] was 691 nM. It also gave a GI50 [27] of 345 nM, a TGI [27] of 2430 nM and a GI50 [28] of 239 nM. It also gave a TGI [28] of 592 nM, a TGI [29] of 800 nM and a TGI [30] of 605 nM. The GI50 [31] was 215 nM, the TGI [31] was 485 nM and the GI50 [32] was 283 nM. It also gave a TGI [32] of 820 nM, a GI50 [33] of 246 nM and a TGI [33] of 642 nM. The GI50 [34] was 243 nM, the TGI [34] was 611 nM and the GI50 [35] was 180 nM. It also gave a TGI [35] of 351 nM, a GI50 [36] of 237 nM and a TGI [36] of 657 nM. For the same compound, the GI50 [37] was 286 nM, the TGI [37] was 812 nM and the GI50 [38] was 285 nM. It also gave a TGI [38] of 943 nM, a TGI [39] of 1120 nM and a TGI [40] of 1710 nM. For the same compound, the GI50 [41] was 335 nM, the TGI [42] was 824 nM and the GI50 [43] was 270 nM. For the same compound, the TGI [43] was 818 nM, the GI50 [44] was 263 nM and the TGI [44] was 765 nM. For the same compound, the TGI [45] was 1060 nM, the TGI [46] was 1130 nM and the TGI [47] was 698 nM. The GI50 [48] was 261 nM, the TGI [48] was 921 nM and the GI50 [49] was 317 nM. The TGI [49] was greater than 100000 nM, the GI50 [50] was 304 nM and the TGI [50] was 1110 nM. For the same compound, the GI50 [51] was 235 nM, the TGI [51] was 655 nM and the GI50 [52] was 323 nM. It also gave a TGI [52] greater than 100000 nM, a GI50 [53] of 295 nM and a TGI [53] of 894 nM. It also gave a GI50 [54] of 316 nM, a TGI [54] of 1790 nM and a GI50 [55] of 271 nM. For the same compound, the TGI [55] was 722 nM, the GI50 [56] was 223 nM and the TGI [56] was 507 nM. For the same compound, the TGI [57] was 1310 nM.
